# Results published in ChEMBL document CHEMBL5620374, “Synthesis and bioevaluation of novel stilbene-based derivatives as tubulin/HDAC dual-target inhibitors with potent antitumor activities in vitro and in vivo” (Eur J Med Chem, 2023).
# Active and inactive are the calls of the source. The rule behind the calls is not given here.
# Columns and labels:
# K562 [1] = assay: Antiproliferative activity against human K562 cells incubated for 72 hrs by MTT assay; format: functional, cell-based; details: K562, 72 h
# B16-F10 = assay: Antiproliferative activity against mouse B16-F10 cells incubated for 72 hrs by MTT assay; format: functional, cell-based; details: B16-F10, 72 h
# Histone deacetylase 1 [2] = molecular target: T1, Histone deacetylase 1 (Homo sapiens, UniProt Q13547); assay: Inhibition of HDAC1 derived from human HeLa cell extract using Ac-Leu-Gly-Lys (Ac)-AMC as substrate by fluorescence based assay; format: cell-free
# Histone deacetylase 3 [3] = molecular target: T2, Histone deacetylase 3 (Homo sapiens, UniProt O15379); assay: Inhibition of HDAC3 derived from human HeLa cell extract using Ac-Leu-Gly-Lys (Ac)-AMC as substrate by fluorescence based assay; format: cell-free
# Tubulin = assay: Inhibition of tubulin (unknown origin) polymerization measured for 60 mins by absorbance based assay; format: protein-complex assay, Homo sapiens
# Histone deacetylase 1 [4] = molecular target: T1, Histone deacetylase 1; assay: Inhibition of HDAC1 in human K562 cells assessed as increase in Acetyl-histone H3 level at 0.01 to 1 uM incubated for 24 hrs by Western blot analysis; format: cell-based; details: dose 0.01-1 µM
# Histone deacetylase 3 [5] = molecular target: T2, Histone deacetylase 3; assay: Inhibition of HDAC3 in human K562 cells assessed as increase in Acetyl-histone H3 level at 0.01 to 1 uM incubated for 24 hrs by Western blot analysis; format: cell-based; details: dose 0.01-1 µM
# K562 [6] = assay: Induction of cell cycle arrest at G1 phase in human K562 cells at 4 nM incubated for 48 hrs by PI staining based flow cytometry (reference value: 62.08 +/- 0.40 %); format: functional
# K562 [7] = assay: Induction of cell cycle arrest at S phase in human K562 cells at 4 nM incubated for 48 hrs by PI staining based flow cytometry (reference value: 22.56 +/- 0.47 %); format: functional
# K562 [8] = assay: Induction of cell cycle arrest at G1 phase in human K562 cells at 8 nM incubated for 48 hrs by PI staining based flow cytometry (reference value: 62.08 +/- 0.40 %); format: functional
# K562 [9] = assay: Induction of cell cycle arrest at S phase in human K562 cells at 8 nM incubated for 48 hrs by PI staining based flow cytometry (reference value: 22.56 +/- 0.47 %); format: functional
# K562 [10] = assay: Induction of cell cycle arrest at G2 phase in human K562 cells at 8 nM incubated for 48 hrs by PI staining based flow cytometry (Rvb =15.36 +/- 0.46 %); format: functional
# K562 [11] = assay: Effect on cell cycle in human K562 cells assessed as decrease in Cdc2 level incubated for 24 hrs by Western blot analysis; format: functional, cell-based; details: dose 2-8 nM
# K562 [12] = assay: Effect on cell cycle in human K562 cells assessed as decrease in Cdc25c level incubated for 24 hrs by Western blot analysis; format: functional, cell-based; details: dose 2-8 nM
# K562 [13] = assay: Effect on cell cycle in human K562 cells assessed as decrease in cyclin B1 level incubated for 24 hrs by Western blot analysis; format: functional, cell-based; details: dose 2-8 nM
# K562 [14] = assay: Induction of apoptosis in human K562 cells assessed as chromatin aggregation at 2 to 8 nM incubated for 48 hrs by Hoechst 33342 staining based analysis; format: functional, cell-based; details: dose 2-8 nM
# K562 [15] = assay: Induction of apoptosis in human K562 cells assessed as nuclear fragmentation at 2 to 8 nM incubated for 48 hrs by Hoechst 33342 staining based analysis; format: functional, cell-based; details: dose 2-8 nM
# K562 [16] = assay: Induction of apoptosis in human K562 cells assessed as viable cells at 2 nM incubated for 48 hrs by Annexin V/PI staining based flow cytometry (reference value: 92.52 +/- 0.34 %); format: functional; details: read-out: Activity
# K562 [17] = assay: Induction of apoptosis in human K562 cells assessed as necrotic cells at 2 nM incubated for 48 hrs by Annexin V/PI staining based flow cytometry (reference value: 2.56 +/- 0.22 %); format: functional
# K562 [18] = assay: Induction of apoptosis in human K562 cells assessed as early apoptotic cells at 4 nM incubated for 48 hrs by Annexin V/PI staining based flow cytometry (reference value: 1.55 +/- 0.21 %); format: functional
# K562 [19] = assay: Induction of apoptosis in human K562 cells assessed as necrotic cells at 4 nM incubated for 48 hrs by Annexin V/PI staining based flow cytometry (reference value: 2.56 +/- 0.22 %); format: functional
# K562 [20] = assay: Induction of apoptosis in human K562 cells assessed as viable cells at 8 nM incubated for 48 hrs by Annexin V/PI staining based flow cytometry (reference value: 92.52 +/- 0.34 %); format: functional; details: read-out: Activity
# K562 [21] = assay: Induction of apoptosis in human K562 cells assessed as early apoptotic cells at 8 nM incubated for 48 hrs by Annexin V/PI staining based flow cytometry (reference value: 1.55 +/- 0.21 %); format: functional
# K562 [22] = assay: Induction of apoptosis in human K562 cells assessed as increase in Bax level incubated for 24 hrs by Western blot analysis; format: functional, cell-based; details: dose 2-8 nM
# K562 [23] = assay: Induction of apoptosis in human K562 cells assessed as decrease in Bcl-2 level incubated for 24 hrs by Western blot analysis; format: functional, cell-based; details: dose 2-8 nM
# K562 [24] = assay: Inhibition of mitochondrial membrane potential in human K562 cells assessed as green fluorescence intensity at 4 nM incubated for 48 hrs by JC-1 staining based flow cytometry (reference value: 6.63 +/- 0.27 %); format: functional
# K562 [25] = assay: Inhibition of mitochondrial membrane potential in human K562 cells assessed as red fluorescence intensity at 8 nM incubated for 48 hrs by JC-1 staining based flow cytometry (reference value: 93.36 +/- 0.21 %); format: functional
# K562 [26] = assay: Inhibition of mitochondrial membrane potential in human K562 cells assessed as green fluorescence intensity at 8 nM incubated for 48 hrs by JC-1 staining based flow cytometry (reference value: 6.63 +/- 0.27 %); format: functional
# K562 [27] = assay: Induction of ROS generation in human K562 cells assessed as DCF-positive cells at 4 nM incubated for 48 hrs by DCF-DA probe based flow cytometry (reference value: 3.87 %); format: functional
# K562 [28] = assay: Induction of ROS generation in human K562 cells assessed as DCF-positive cells at 8 nM incubated for 48 hrs by DCF-DA probe based flow cytometry (reference value: 3.87 %); format: functional
# HUVEC [29] = assay: Antivascular activity against HUVEC cells assessed as decrease in cell migration at 8 nM incubated for 24 hrs by wound healing assay; format: functional, cell-based; details: Homo sapiens
# HUVEC [30] = assay: Inhibition of tube formation in HUVEC cells at 8 nM incubated for 6 hrs by inverted microscopy; format: functional, cell-based; details: Homo sapiens
# HUVEC [31] = assay: Inhibition of tube formation in HUVEC cells incubated for 24 hrs by inverted microscopy; format: functional, cell-based; details: Homo sapiens
# H22 [32] = assay: Antitumor activity against mouse H22 cells allografted in ICR mouse assessed as tumor growth inhibition at 20 mg/kg, iv qd for 17 days consecutively relative to control; format: functional; details: time 17 day, read-out: TGI
# H22 [33] = assay: Antitumor activity against mouse H22 cells allografted in ICR mouse assessed as decrease in tumor weight at 10 to 20 mg/kg, iv qd for 17 days consecutively; format: functional, organism-based; details: dose 10-20 mg/kg, time 17.0 day
# [34] = Toxicity in ICR mouse allografted with mouse H22 cells assessed as body weight reduction at 10 to 20 mg/kg, iv qd for 17 days consecutively; format: organism-based; details: in vivo, dose 10-20 mg/kg, time 17 day
# H22 [35] = assay: Antitumor activity against mouse H22 cells allografted in ICR mouse assessed as decrease in tumor microvessel density at 20 mg/kg, iv qd for 17 days consecutively by IHC analysis; format: functional, organism-based; details: time 17.0 day
# T1 sequence (Q13547 whole entry): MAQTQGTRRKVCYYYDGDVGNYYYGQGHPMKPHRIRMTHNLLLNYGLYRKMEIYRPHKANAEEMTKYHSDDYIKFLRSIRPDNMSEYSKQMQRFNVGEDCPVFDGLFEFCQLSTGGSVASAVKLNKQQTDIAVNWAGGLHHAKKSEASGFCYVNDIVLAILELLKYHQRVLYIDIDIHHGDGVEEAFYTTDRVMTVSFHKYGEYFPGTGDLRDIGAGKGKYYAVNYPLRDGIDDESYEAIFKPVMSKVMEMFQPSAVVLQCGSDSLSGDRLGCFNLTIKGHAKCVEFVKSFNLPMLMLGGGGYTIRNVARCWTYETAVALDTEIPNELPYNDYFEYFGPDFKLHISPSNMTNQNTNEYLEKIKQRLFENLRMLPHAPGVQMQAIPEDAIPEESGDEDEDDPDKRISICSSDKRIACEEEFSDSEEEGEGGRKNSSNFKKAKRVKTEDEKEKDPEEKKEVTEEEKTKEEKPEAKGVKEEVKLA
# T2 sequence (O15379 whole entry): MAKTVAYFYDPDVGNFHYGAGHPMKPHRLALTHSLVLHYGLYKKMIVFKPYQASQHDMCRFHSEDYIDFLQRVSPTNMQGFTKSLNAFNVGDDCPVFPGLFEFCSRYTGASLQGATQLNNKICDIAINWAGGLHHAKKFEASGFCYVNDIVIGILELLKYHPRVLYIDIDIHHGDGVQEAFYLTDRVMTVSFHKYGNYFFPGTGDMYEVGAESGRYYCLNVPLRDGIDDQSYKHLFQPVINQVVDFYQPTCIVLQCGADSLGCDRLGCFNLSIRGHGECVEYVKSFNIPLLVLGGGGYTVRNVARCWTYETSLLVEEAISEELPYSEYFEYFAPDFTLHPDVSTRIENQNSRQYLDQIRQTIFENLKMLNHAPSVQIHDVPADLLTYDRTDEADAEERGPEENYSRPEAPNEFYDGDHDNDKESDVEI
compound,measurement,setting,value
C=C(c1ccc(OC)c(OC(F)C(=O)NO)c1)c1cc(C)nc2ccccc12 (configuration not stated),IC50,K562 [1],3 nM
same,IC50,B16-F10,5 nM
same,IC50,Histone deacetylase 1 [2],403 nM
same,IC50,Histone deacetylase 3 [3],3.55 µM
same,IC50,Tubulin,3.84 µM
same,inhibition,Histone deacetylase 1 [4],Active
same,inhibition,Histone deacetylase 3 [5],Active
same,Activity,K562 [6],49.35%
same,Activity,K562 [7],26.6%
same,Activity,K562 [8],41.72%
same,Activity,K562 [9],30.41%
same,Activity,K562 [10],27.87%
same,Activity,K562 [11],Dose-Dependent Effect
same,Activity,K562 [12],Dose-Dependent Effect
same,Activity,K562 [13],Dose-Dependent Effect
same,Activity,K562 [14],Active
same,Activity,K562 [15],Active
same,viability at 0.002 µM,K562 [16],81.2%
same,Activity,K562 [17],0.36%
same,Activity,K562 [18],24.51%
same,Activity,K562 [19],0.17%
same,viability at 0.008 µM,K562 [20],52.6%
same,Activity,K562 [21],18.11%
same,Activity,K562 [22],Dose-Dependent Effect
same,Activity,K562 [23],Dose-Dependent Effect
same,Flu intensity,K562 [24],31.75%
same,Flu intensity,K562 [25],57.69%
same,Flu intensity,K562 [26],42.31%
same,Activity,K562 [27],29.72%
same,Activity,K562 [28],42.67%
same,Activity,HUVEC [29],Active
same,inhibition,HUVEC [30],Active
same,IC50,HUVEC [31],192 nM
same,inhibition in vivo at 20 mg/kg,H22 [32],73.1%
same,Activity,H22 [33],Active
same,Activity,[34],Non-Toxic
same,Activity,H22 [35],Active
